Biological target: T1, N-terminal HiBiT tagged BCL6 (Homo sapiens, UniProt P41182)
T1 construct: expressed in transfected cells; host or cells: HT1080 (ATCC CCL-121), stably transduced with lentivirus pLV-UBC-N-HiBiT-BCL6-PGK-puro
Test: HiBiT based degradation assay
Type: cell-based
Details: HT1080 cells expressing N-terminal HiBiT tagged BCL6, 5 hours of incubation; for Ymin (5 hr): BCL6 degradation normalized with DMSO control; for DC50: four-parameter logistic model, read-out: EC50 (5 hr)
Method in brief: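 Degradation measured by luminescence from the Nano-Glo HiBiT lytic reagent (15 min, room temperature), normalized to DMSO controls and fitted to a four-parameter curve.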

Compound: CNC(=O)COc1cc2cc(Nc3nc(N4CC[C@@H](CN5CCN(c6cccc7c(C8CCC(=O)NC8=O)nn(C)c67)CC5)[C@H](C)C4)ncc3Cl)cnc2n(C(C)C)c1=O (stereo partly drawn) [Compound 177c, 2-[[6-[[5-chloro-2-[(3S,4R)-4-[[4-[3-(2,6-dioxo-3-piperidyl)-1-methyl-indazol-7-yl]piperazin-1-yl]methyl]-3-methyl-1-piperidyl]pyrimidin-4-yl]amino]-1-isopropyl-2-oxo-1,8-naphthyridin-3-yl]oxy]-N-methyl-acetamide]
- Ymin (5 hr): +++ (30% ≤ Ymin < 50%)
- DC50: 0.1 to 1 µM

Compound: CNC(=O)COc1cc2cc(Nc3nc(N4CC[C@H](CN5CCN(c6cccc7c(C8CCC(=O)NC8=O)nn(C)c67)CC5)[C@@H](C)C4)ncc3Cl)cnc2n(C(C)C)c1=O (stereo partly drawn) [Compound 177d, 2-((6-((5-chloro-2-((3R,4S)-4-((4-(3-(2,6-dioxopiperidin-3-yl)-1-methyl-1H-indazol-7-yl)piperazin-1-yl)methyl)-3-methylpiperidin-1-yl)pyrimidin-4-yl)amino)-1-isopropyl-2-oxo-1,2-dihydro-1,8-naphthyridin-3-yl)oxy)-N-methylacetamide]
- Ymin (5 hr): ++++ (Ymin < 30%)
- DC50: 0.01 to 0.1 µM

Compound: CNC(=O)COc1cc2cc(Nc3nc(N4CCC(O)(CN5CCN(c6cccc7c(C8CCC(=O)NC8=O)nn(C)c67)CC5)CC4)ncc3Cl)cnc2n(C(C)C)c1=O (stereo not shown) [Compound 178, 2-[[6-[[5-chloro-2-[4-[[4-[3-(2,6-dioxo-3-piperidyl)-1-methyl-indazol-7-yl]piperazin-1-yl]methyl]-4-hydroxy-1-piperidyl]pyrimidin-4-yl]amino]-1-isopropyl-2-oxo-1,8-naphthyridin-3-yl]oxy]-N-methyl-acetamide]
- Ymin (5 hr): +++ (30% ≤ Ymin < 50%)
- DC50: < 0.01 µM

Compound: CNC(=O)COc1cc2cc(Nc3nc(N4C[C@H](C)N(CC5CCN(c6cccc7c(C8CCC(=O)NC8=O)nn(C)c67)CC5)C[C@H]4C)ncc3Cl)cnc2n(C(C)C)c1=O (stereo partly drawn) [Compound 179a, 2-[[6-[[5-chloro-2-[(2R,5S)-4-[[1-[3-(2,6-dioxo-3-piperidyl)-1-methyl-indazol-7-yl]-4-piperidyl]methyl]-2,5-dimethyl-piperazin-1-yl]pyrimidin-4-yl]amino]-1-isopropyl-2-oxo-1,8-naphthyridin-3-yl]oxy]-N-methyl-acetamide]
- Ymin (5 hr): +++ (30% ≤ Ymin < 50%)
- DC50: 0.1 to 1 µM

Compound: CNC(=O)COc1cc2cc(Nc3nc(N4C[C@@H](C)N(CC5CCN(c6cccc7c(C8CCC(=O)NC8=O)nn(C)c67)CC5)C[C@@H]4C)ncc3Cl)cnc2n(C(C)C)c1=O (stereo partly drawn) [Compound 179b, 2-[[6-[[5-chloro-2-[(2S,5R)-4-[[1-[3-(2,6-dioxo-3-piperidyl)-1-methyl-indazol-7-yl]-4-piperidyl]methyl]-2,5-dimethyl-piperazin-1-yl]pyrimidin-4-yl]amino]-1-isopropyl-2-oxo-1,8-naphthyridin-3-yl]oxy]-N-methyl-acetamide]
- Ymin (5 hr): +++ (30% ≤ Ymin < 50%)
- DC50: 0.1 to 1 µM

Compound: CNC(=O)COc1cc2cc(Nc3nc(N4CC5(CCC(Oc6cccc7c(C8CCC(=O)NC8=O)nn(C)c67)CC5)C4)ncc3Cl)cnc2n(C(C)C)c1=O (stereo not shown) [Compound 181, 2-[[6-[[5-chloro-2-[7-[3-(2,6-dioxo-3-piperidyl)-1-methyl-indazol-7-yl]oxy-2-azaspiro[3.5]nonan-2-yl]pyrimidin-4-yl]amino]-1-isopropyl-2-oxo-1,8-naphthyridin-3-yl]oxy]-N-methyl-acetamide]
- Ymin (5 hr): +++ (30% ≤ Ymin < 50%)
- DC50: 0.01 to 0.1 µM

Compound: CNC(=O)COc1cc2cc(Nc3nc(N4CC5(CCC(Nc6ccc7c(C8CCC(=O)NC8=O)nn(C)c7c6)CC5)C4)ncc3Cl)cnc2n(C(C)C)c1=O (stereo not shown) [Compound 182, 2-((6-((5-chloro-2-(7-((3-(2,6-dioxopiperidin-3-yl)-1-methyl-1H-indazol-6-yl)amino)-2-azaspiro[3.5]nonan-2-yl)pyrimidin-4-yl)amino)-1-isopropyl-2-oxo-1,2-dihydro-1,8-naphthyridin-3-yl)oxy)-N-methylacetamide]
- Ymin (5 hr): ++++ (Ymin < 30%)
- DC50: < 0.01 µM

Compound: CNC(=O)COc1cc2cc(Nc3nc(N4CC5(CCC(Oc6ccc7c(C8CCC(=O)NC8=O)nn(C)c7c6)CC5)C4)ncc3Cl)cnc2n(C(C)C)c1=O (stereo not shown) [Compound 183, 2-[[6-[[5-chloro-2-[7-[3-(2,6-dioxo-3-piperidyl)-1-methyl-indazol-6-yl]oxy-2-azaspiro[3.5]nonan-2-yl]pyrimidin-4-yl]amino]-1-isopropyl-2-oxo-1,8-naphthyridin-3-yl]oxy]-N-methyl-acetamide]
- Ymin (5 hr): ++++ (Ymin < 30%)
- DC50: < 0.01 µM

Compound: CNC(=O)COc1cc2cc(Nc3nc(N4CC5(CCC(Nc6cc7c(cc6F)c(C6CCC(=O)NC6=O)nn7C)CC5)C4)ncc3Cl)cnc2n(C(C)C)c1=O (stereo not shown) [Compound 184, 2-[[6-[[5-chloro-2-[7-[[3-(2,6-dioxo-3-piperidyl)-5-fluoro-1-methyl-indazol-6-yl]amino]-2-azaspiro[3.5]nonan-2-yl]pyrimidin-4-yl]amino]-1-isopropyl-2-oxo-1,8-naphthyridin-3-yl]oxy]-N-methyl-acetamide]
- Ymin (5 hr): ++++ (Ymin < 30%)
- DC50: < 0.01 µM

Compound: CNC(=O)COc1cc2cc(Nc3nc(N4CCN(CC5CCN(c6cccc7c(C8CCC(=O)NC8=O)nn(C)c67)CC5)CC4)ncc3Cl)cnc2n(CCO)c1=O (stereo not shown) [Compound 186, 2-((6-((5-chloro-2-(4-((1-(3-(2,6-dioxopiperidin-3-yl)-1-methyl-1H-indazol-7-yl)piperidin-4-yl)methyl)piperazin-1-yl)pyrimidin-4-yl)amino)-1-(2-hydroxyethyl)-2-oxo-1,2-dihydro-1,8-naphthyridin-3-yl)oxy)-N-methylacetamide]
- Ymin (5 hr): ++++ (Ymin < 30%)
- DC50: 0.01 to 0.1 µM

Compound: CNC(=O)COc1cc2cc(Nc3nc(N4CCC(CN5CC6CC(C5)N6c5cccc6c(C7CCC(=O)NC7=O)nn(C)c56)CC4)ncc3Cl)cnc2n(C(C)C)c1=O (stereo not shown) [Compound 187, 2-[[6-[[5-chloro-2-[4-[[6-[3-(2,6-dioxo-3-piperidyl)-1-methyl-indazol-7-yl]-3,6-diazabicyclo[3.1.1]heptan-3-yl]methyl]-1-piperidyl]pyrimidin-4-yl]amino]-1-isopropyl-2-oxo-1,8-naphthyridin-3-yl]oxy]-N-methyl-acetamide]
- Ymin (5 hr): +++ (30% ≤ Ymin < 50%)
- DC50: 0.01 to 0.1 µM

Compound: CNC(=O)COc1cc2cc(Nc3nc(N4CCC(CN5CCN(c6cccc7c(C8CCC(=O)NC8=O)nn(C)c67)C[C@H]5C)CC4)ncc3F)cnc2n(C(C)C)c1=O (stereo partly drawn) [Compound 188a, 2-[[6-[[2-[4-[[(2R)-4-[3-(2,6-dioxo-3-piperidyl)-1-methyl-indazol-7-yl]-2-methyl-piperazin-1-yl]methyl]-1-piperidyl]-5-fluoro-pyrimidin-4-yl]amino]-1-isopropyl-2-oxo-1,8-naphthyridin-3-yl]oxy]-N-methyl-acetamide]
- Ymin (5 hr): +++ (30% ≤ Ymin < 50%)
- DC50: 0.01 to 0.1 µM

Compound: CNC(=O)COc1cc2cc(Nc3nc(N4CCC(CN5CCN(c6cccc7c(C8CCC(=O)NC8=O)nn(C)c67)C[C@@H]5C)CC4)ncc3F)cnc2n(C(C)C)c1=O (stereo partly drawn) [Compound 188b, 2-[[6-[[2-[4-[[(2S)-4-[3-(2,6-dioxo-3-piperidyl)-1-methyl-indazol-7-yl]-2-methyl-piperazin-1-yl]methyl]-1-piperidyl]-5-fluoro-pyrimidin-4-yl]amino]-1-isopropyl-2-oxo-1,8-naphthyridin-3-yl]oxy]-N-methyl-acetamide]
- Ymin (5 hr): ++++ (Ymin < 30%)
- DC50: 0.01 to 0.1 µM

Compound: CNC(=O)COc1cc2cc(Nc3nc(N4CCC(F)(CN5CCN(c6cccc7c(C8CCC(=O)NC8=O)nn(C)c67)C[C@@H]5C)CC4)ncc3Cl)cnc2n(C(C)C)c1=O (stereo partly drawn) [Compound 189a, 2-[[6-[[5-chloro-2-[4-[[(2S)-4-[3-(2,6-dioxo-3-piperidyl)-1-methyl-indazol-7-yl]-2-methyl-piperazin-1-yl]methyl]-4-fluoro-1-piperidyl]pyrimidin-4-yl]amino]-1-isopropyl-2-oxo-1,8-naphthyridin-3-yl]oxy]-N-methyl-acetamide]
- Ymin (5 hr): ++++ (Ymin < 30%)
- DC50: 0.01 to 0.1 µM

Compound: CNC(=O)COc1cc2cc(Nc3cc(N4CCC(CN5CCN(c6ccc7c(C8CCC(=O)NC8=O)nn(C)c7c6)CC5)CC4)ncc3Cl)cnc2n(C(C)C)c1=O (stereo not shown) [Compound 190, 2-[[6-[[5-chloro-2-[4-[[4-[3-(2,6-dioxo-3-piperidyl)-1-methyl-indazol-6-yl]piperazin-1-yl]methyl]-1-piperidyl]-4-pyridyl]amino]-1-isopropyl-2-oxo-1,8-naphthyridin-3-yl]oxy]-N-methyl-acetamide]
- Ymin (5 hr): ++ (50% ≤ Ymin < 70%)
- DC50: 0.01 to 0.1 µM

Compound: CNC(=O)COc1cc2cc(Nc3nc(N4CCN(CC5CCN(c6cccc7c(C8CCC(=O)NC8=O)nn(C)c67)CC5)C5(CC5)C4)ncc3Cl)cnc2n(C(C)C)c1=O (stereo not shown) [Compound 191, 2-[[6-[[5-chloro-2-[4-[[1-[3-(2,6-dioxo-3-piperidyl)-1-methyl-indazol-7-yl]-4-piperidyl]methyl]-4,7-diazaspiro[2.5]octan-7-yl]pyrimidin-4-yl]amino]-1-isopropyl-2-oxo-1,8-naphthyridin-3-yl]oxy]-N-methyl-acetamide]
- Ymin (5 hr): +++ (30% ≤ Ymin < 50%)
- DC50: 0.01 to 0.1 µM

Compound: CNC(=O)COc1cc2cc(Nc3nc(N4CCC(CN5CCN(c6cccc7c(C8CCC(=O)NC8=O)nn(C)c67)C[C@@H]5C)CC4)ncc3Cl)cnc2n(C(C)C)c1=O (stereo partly drawn) [Compound 192a, 2-[[6-[[5-chloro-2-[4-[[(2S)-4-[3-(2,6-dioxo-3-piperidyl)-1-methyl-indazol-7-yl]-2-methyl-piperazin-1-yl]methyl]-1-piperidyl]pyrimidin-4-yl]amino]-1-isopropyl-2-oxo-1,8-naphthyridin-3-yl]oxy]-N-methyl-acetamide]
- Ymin (5 hr): ++++ (Ymin < 30%)
- DC50: 0.01 to 0.1 µM
